# Key:
# Conditions in all cases: 72 h
# U2OS [1] = test: drug sensitivity score (DSS) for viability; higher = more toxic; extreme values may be limits of the assay
# Vero E6 [2] = test: as above
# Calu-3 [3] = test: as above
# HepG2 [4] = test: as above
# Caco-2 [5] = test: as above
# U2OS [6] = test: relative viability EC50 (midpoint between 100% and the lowest measured viability); higher = less toxic
# Vero E6 [7] = test: as above
# Calu-3 [8] = test: as above
# HepG2 [9] = test: as above
# Caco-2 [10] = test: as above
# U2OS [11] = test: cell viability relative to DMSO; higher = less toxic
# Vero E6 [12] = test: as above
# Calu-3 [13] = test: as above
# HepG2 [14] = test: as above
# Caco-2 [15] = test: as above
SMILES,drug sensitivity score (U2OS [1]),drug sensitivity score (Vero E6 [2]),drug sensitivity score (Calu-3 [3]),drug sensitivity score (HepG2 [4]),drug sensitivity score (Caco-2 [5]),relative viability EC50 (U2OS [6]) [µM],relative viability EC50 (Vero E6 [7]) [µM],relative viability EC50 (Calu-3 [8]) [µM],relative viability EC50 (HepG2 [9]) [µM],relative viability EC50 (Caco-2 [10]) [µM],cell viability (U2OS [11]; 1 nM) [%],cell viability (U2OS [11]; 10 nM) [%],cell viability (U2OS [11]; 100 nM) [%],cell viability (U2OS [11]; 1000 nM) [%],cell viability (U2OS [11]; 10000 nM) [%],cell viability (Vero E6 [12]; 1 nM) [%],cell viability (Vero E6 [12]; 10 nM) [%],cell viability (Vero E6 [12]; 100 nM) [%],cell viability (Vero E6 [12]; 1000 nM) [%],cell viability (Vero E6 [12]; 10000 nM) [%],cell viability (Calu-3 [13]; 1 nM) [%],cell viability (Calu-3 [13]; 10 nM) [%],cell viability (Calu-3 [13]; 100 nM) [%],cell viability (Calu-3 [13]; 1000 nM) [%],cell viability (Calu-3 [13]; 10000 nM) [%],cell viability (HepG2 [14]; 1 nM) [%],cell viability (HepG2 [14]; 10 nM) [%],cell viability (HepG2 [14]; 100 nM) [%],cell viability (HepG2 [14]; 1000 nM) [%],cell viability (HepG2 [14]; 10000 nM) [%],cell viability (Caco-2 [15]; 1 nM) [%],cell viability (Caco-2 [15]; 10 nM) [%],cell viability (Caco-2 [15]; 100 nM) [%],cell viability (Caco-2 [15]; 1000 nM) [%],cell viability (Caco-2 [15]; 10000 nM) [%]
CC(C)C[C@H](NC(=O)N1CCCCCC1)C(=O)N[C@H](Cc1cn(C)c2ccccc12)C(=O)N[C@H](Cc1ccccn1)C(=O)O,0,0,0,0,0,> 10,> 10,> 10,> 10,> 10,99.1,94.4,96.4,99,97.9,95,97,100,98.9,98.5,109,95.2,97.9,106,112,94.5,111,99,101,89.8,100,82.5,92.1,99.9,91.2
CCCCCCCCC(=O)N[C@H](CN1CCCC1)[C@H](O)c1ccc2c(c1)OCCO2,0,0,0,0,0,> 10,> 10,> 10,> 10,> 10,101,102,105,98.5,102,91.9,97.2,87.7,90.4,95.4,109,94.9,92.2,92,94.8,96.8,105,105,106,104,101,94.9,102,111,98.9
CCCCN1CCC(CCC(=O)c2cc(Cl)c(N)cc2OC)CC1,0,0,0,2.4,0,> 10,> 10,> 10,> 10,> 10,104,93.6,95.8,92.7,94.1,101,102,99.2,101,94.1,101,99.5,101,98.3,109,95.5,98.2,96.9,82.8,83.5,104,100,97.3,92.7,95.2
CCCCOCCOc1nc(-c2ccc(C(=O)O)c(F)c2)sc1C,0.1,0,1,0,0.4,> 10,> 10,> 10,> 10,> 10,103,102,96.5,89.6,90.1,100,99.7,97.5,99.9,90.8,109,104,109,89.8,84.8,97.5,104,105,102,102,94.1,97.2,94.6,100,82
CCOc1c2c(c(OCC)c3ccccc13)C(=O)N(c1ccc(CC(=O)NS(=O)(=O)c3ccccc3)cc1)C2,0,0,0,0,0,> 10,> 10,> 10,> 10,> 10,99.4,100,96.4,98.9,97.2,96,95.1,97.9,89.1,101,94,98.6,102,98.1,98.2,97.6,87,104,93.1,104,96.3,94.8,97.7,90.3,89.8
CC[C@@H](c1ccc(F)c(F)c1)n1c(C(=O)OC)c(-c2ccno2)[nH]c1=S,0,0,0,0,0,> 10,> 10,> 10,> 10,> 10,99.7,94,98.9,96,95.7,103,95.4,97.8,99.9,96.7,96.1,95.1,98.6,91.3,99.8,115,98.8,93.3,99.7,90.4,97.9,98.3,98.4,96.9,94.2
CCc1cncnc1N1CCN(Cc2nc3cc(C(F)(F)F)ccc3[nH]2)CC1,0.9,0,1.1,4.8,2.1,> 10,> 10,> 10,2.21,,96.6,101,98.5,97.7,79.9,99.5,104,101,101,89.9,80.8,101,84.2,89.9,88.2,97.6,103,103,92.4,34.8,93.2,109,99,98.5,61.8
CN1C(=O)N(c2cc(Cl)cc(Cl)c2)C(=O)[C@]12CN(c1ccc(C(=O)O)cn1)C[C@H]2c1ccc(C#N)cc1,0,0,0,0,0,> 10,> 10,> 10,> 10,> 10,98.8,96.5,100,101,94.4,99.4,102,101,93.7,103,104,90.8,93.7,111,107,104,93.1,91.5,96.9,106,93.9,98.4,97.5,89,97.3
C[C@@H](CN1CCC(n2c(=O)[nH]c3cc(Cl)ccc32)CC1)NC(=O)c1ccc2ccccc2c1,0,,0.7,0.9,1,> 10,,> 10,> 10,> 10,106,102,100,98.1,91.1,,,,,,102,99.7,96.2,94.2,82.1,99.9,102,85.6,94.1,82.9,93.8,105,101,97.4,79.5
C[C@H](NC(=O)c1sccc1OCc1ccc(Cl)cc1)c1ccccc1,0,0,0,0.7,1.9,> 10,> 10,> 10,> 10,,92.3,103,98.7,99.9,88.6,113,107,108,100,96.8,102,96,99.6,107,98.1,104,108,105,103,75.8,97.9,103,104,97,67.7
Nc1c(S(=O)(=O)O)cc(Nc2cccc3ccccc23)c2c1C(=O)c1ccccc1C2=O,0.8,0,0,1,0.1,> 10,> 10,> 10,> 10,> 10,94.1,98.4,95.3,95.4,81.8,94.2,98.3,97.3,93.7,86.7,101,95.8,91.5,101,93.2,103,91.1,91.1,90,86.8,91.3,97.8,101,89.7,90.1
c1ccc(CN2CCC3(CCc4ccccc43)CC2)cc1,0,0,0,0,0,> 10,> 10,> 10,> 10,> 10,102,102,101,99.6,99.6,97.1,97,92.8,94.4,104,99.6,98.5,108,95.4,96.5,95.1,101,91.9,106,102,96.9,97.5,99,93,89.6
Cc1noc(C)c1-c1ccc(-c2cc(C(N)=O)c(NC(N)=O)s2)c(O[C@H]2CCNC2)c1 [AZD3264],,0,0,0,0,,> 10,> 10,> 10,> 10,,,,,,102,104,105,97.4,103,97.4,95.7,103,101,105,114,97.6,99.8,101,99.4,95.7,100,100,103,106
O=C(O)c1ccc2cc(-c3ccc(O)c(C45CC6CC(CC(C6)C4)C5)c3)ccc2c1 [CD-437],7.5,4.2,6.5,9.9,9.5,1.88,,1.79,0.685,0.436,101,100,98.7,84.7,9.8,107,99.1,104,87.6,54.7,92.7,101,93.3,85.7,24.4,108,95.4,105,48.8,29.3,99.4,92.8,89.4,56.2,36.8
Fc1ccccc1CNCc1ccc(-c2ccnc3[nH]ccc23)cc1 [OXA-06],1.8,0.4,0,0,0,,> 10,> 10,> 10,> 10,98.6,102,96.8,97.2,69.8,103,95.6,97.3,97.6,85.4,111,106,100,139,139,105,90.4,108,107,86.9,91.3,103,91.5,101,90.2

# From the supplement of paper PMC13380429
